Laboratory results published in patent US10071042B2, “External dermatological agent for anti-ageing” (Hayashibara Co., Ltd., priority 2014, dated 2018).
Marks after values point to notes of the source that are not given here.

Legend:
[1] = test system: normal human epidermal keratinocytes; experiment: Differentiation of keratinocytes, microscopic morphology score (Experiment 1-1); type: cell-based; settings: 3 days culture, mean of triplicate
From the text: To 12-well plates, one milliliter of a cell suspension with a cell density of 2.5×10^4 cells/mL prepared by suspending normal human epidermal keratinocytes in EpiLife, a product name of a medium for keratinocytes containing a growth factor, commercialized by Life Technologies, Inc., 9800 Medical Center Drive Rockville, Md. 20850 USA; followed by culturing the cells until prevailing up to about ½ of the bottom surface of each well. Thereafter, the culture medium in each well was replaced with a medium for keratinocytes free of growth factor and cultured for two days, and then replaced with a fresh medium for keratinocytes, which contained any one of the test substances in Table 1 at respective concentrations as indicated in the table, and then cultured for three days. As a control, a culture system was provided similarly as above except for not adding any of the test substances. Under a microscopic condition, cell morphology was observed and evaluated for the keratinocyte-differentiation-inducing ability based on the following criteria:
Score 1: The number of cells in a flattened form against the total cells is 50% or lower.
Score 2: The number of cells in a flattened form against the total cells is 50% or more.
Score 3: Nearly all of the cells are in an irregular shape and there appears some cells with gloss.
It means that the higher the score the more the cell differentiation was accelerated. Each experiment system was performed in a triplicate manner, followed by calculating a mean value for each system.

[2] = test system: human epidermoid carcinoma cell line A-431; experiment: Tight-junction function, lucifer yellow transmittance (Experiments 2 and 8); type: cell-based; settings: for Relative transmittance of lucifer yellow (%): control = 100%
From the text: A human epidermoid carcinoma cell line A-431 was suspended in a media, supplemented with any of the test substances disclosed in Table 4 and having respective concentrations as indicated in the table, to give a cell concentration of 1×10^5 cells/mL, and each cell suspension was placed in an insert cup for a 12-well culture plate by two milliliters per well, followed by culturing the cells until reaching a confluent state through over the bottom surface of each well. The inner and the outer cup volumes were adjusted to give two milliliters while checking both the liquid levels of the cups were constant, and lucifer yellow as a model for permeating substance, commercialized by Life Technologies Corporation, CA, USA, was added to each inner cup to give a final concentration of 100 μM. Thereafter, the fluorescent intensities of lucifer yellow in the culture media in both the inner and the outer cups were measured, followed by calculating the percentage of the fluorescent intensity of the outer cup against that of the sum of the outer and the inner cups for use as a transmittance of lucifer yellow with the following equation. Equation: Transmittance of lucifer yellow (%)={(Absorbance of a liquid outside of an insert cup)/[(Absorbance of a liquid inside of the insert cup)+(Absorbance of the liquid outside of the insert cup)]}×100
There was provided a control system prepared similarly as above except for not adding any of the test substances, and the transmittance of lucifer yellow was regarded as 100% for evaluating the reduction of transmittance due to the reinforcement of the function of tight junction, based on the following equation. Equation: Relative transmittance (Relative percentage (%)) of lucifer yellow=[(Transmittance of a sample with any one of test substances)/(Transmittance of control)]×100
The experiment was repeated three times, and the data was subjected to the Dunnett's multiple comparisons with control. The symbol “*” means a level of significance of p<0.01.
Except for adding the test substances listed in Table 11 at respective concentrations shown in the table, experiments were respectively conducted in accordance with the methods in Experiment 2 disclosed in the specification to examine the effect of the combination use with ethylenediaminetetraacetate used as a preservative for cosmetics on the action of reinforcing the function of tight junction by sodium adenosine N1-oxide 5′-phosphate. A control system was provided and similarly treated as above except for not adding any test substance. The reduction rate of relative transmittance of lucifer yellow against that of control based on the following equation. Equation: Reduction rate of relative transmittance of lucifer yellow (%)=100−[(Transmittance of a sample with any one of test substances)/(Transmittance of control)]×100

[3] = test system: matrix metalloprotease-1; experiment: Matrix metalloprotease-1 production of NHDF after IL-1β, ELISA (Experiments 5 and 9); type: cell-based, human; settings: for Production level of matrix metalloprotease-1 (%): human IL-1β 1 ng/ml, control = 100%
Protocol: Normal human dermal fibroblasts (NHDF), which had been suspended in a Dulbecco's Modified Eagle Medium supplemented with 10% fetal calf serum to give a concentration of 2.5×10^5 cells/mL, were placed in 96-well microplates by 0.1 mL/well and cultured until reaching a confluent state over the bottom of each well. Thereafter, the medium in each well was replaced with a fresh serum-free culture medium and culture for another 24 hours, added with any one of the test substances in Table 6 at each concentration shown in the table, and cultured for additional 24 hours. Then, the resulting cell cultures were added with human IL-1β to give a final concentration of 1 ng/ml, followed by culturing the cells for another 24 hours. After completion of the culture, matrix metalloprotease-1 in the supernatant in each well was detected with an enzyme-linked immuno sorbent assay (ELISA), commercialized by R & D Systems, Inc., MN, USA, developed coloration with tetramethylbenzidine, and measured for absorption at a wavelength of 450 nm. A control system was provided similarly as above except for not adding any test substance, and determined for the activity of matrix metalloprotease-1 similarly as in the above to be regarded as 100%. The production level of matrix metalloprotease-1 for each test substance was comparatively evaluated based on the following equation. Equation: Production level of matrix metalloprotease-1 (relative value (%))=[(Absorbance of a sample with any one of test substances)/(Absorbance of control)]×100
The experiment was repeated three times, and the data were compared to that of control with the Dunnett's multiple comparisons test. The symbol “*” means a level of significance of p<0.01.
Except for adding the test substances listed in Table 12 at respective concentrations shown in the table, experiments were respectively conducted in accordance with the methods in Experiment 5 disclosed in the specification to examine the effect of the combination use with ascorbic acid 2-glucoside used as a skin whitener in cosmetics on the action of anti-wrinkles by analogues of adenosine N1-oxide 5′-phosphate. A control system was provided and similarly treated as above except for not adding any test substance. The reduction rate of the production level of matrix metalloprotease-1 against that of control based on the following equation. Equation: Reduction rate of the production level of matrix metalloprotease−1(%)=100−[(Absorbance of a sample with any one of test substances)/(Absorbance of control)]×100

[4] = test system: normal human dermal fibroblasts (NHDF); experiment: Number of cells, cytometry kit (Experiment 5); type: cell-based; settings: control = 100%
From the text: The number of cells was counted with a cytometry kit (or a staining method) and the variation of cell number when added with any one of the test substances, based on the value of control being regarded as 100%.

[5] = 10 μM, single use, reduction against control

Row | Compound | Score ([1]; 200 μM) | Score ([1]; 400 μM) | Score ([1]; 800 μM) | Relative transmittance of lucifer yellow (%) ([2]; 200 μM) | Relative transmittance of lucifer yellow (%) ([2]; 400 μM) | Production level of matrix metalloprotease-1 (%) ([3]; 200 μM) | Production level of matrix metalloprotease-1 (%) ([3]; 400 μM) | Production level of matrix metalloprotease-1 (%) ([3]; 800 μM) | Number of cells (%) ([4]; 200 μM) | Number of cells (%) ([4]; 400 μM) | Number of cells (%) ([4]; 800 μM) | Score ([1]; 40 μM) | other results
1 | 3′-α-Glucosyladenosine [reference compound] | 0.0 | 0.0 | 0.0 | 94.5% | 94.8% | 86.6% | 87.1% | 98.7% | 98.9 | 101.1 | 107.2 | – | –
2 | 3′-α-glucosyl adenosine N1-oxide [3′-α-Glucosyladenosine N1-oxide] | – | – | – | 112.3% | 102.3% | 78.7* % | 75.5* % | 68.6* % | 103.8 | 104.5 | 97.4 | 2.0 | Score ([1]; 80 μM): 2.0; Score ([1]; 160 μM): 3.0
3 | 5′-α-Glucosyladenosine [reference compound] | 0.0 | 0.0 | 0.0 | 94.2% | 82.3% | 89.9% | 94.3% | 87.7% | 104.0 | 103.4 | 93.4 | – | –
4 | 5′-α-glucosyl adenosine N1-oxide [5′-α-Glucosyladenosine N1-oxide] | 2.0 | 2.0 | 3.0 | 97.1% | 96.8% | 85.4* % | 83.6* % | 77.0* % | 108.1 | 102.1 | 102.6 | – | –
5 | Nc1ncnc2c1ncn2[C@@H]1O[C@H](COP(=O)(O)O)[C@@H](O)[C@H]1O [Adenosine 5′-phosphate, reference compound] | – | – | – | 90.6% | 81.6% | 99.5% | 93.3% | 90.3% | 93.7 | 89.9 | 96.0 | – | –
6 | Nc1c2ncn([C@@H]3O[C@H](CO)[C@@H](O)[C@H]3O)c2nc[n+]1[O-] [Adenosine N1-oxide, adenosine N1-oxide] | – | – | – | – | – | – | – | – | – | – | – | 3.0 | Score ([1]; 10 μM): 2.0; Score ([1]; 20 μM): 3.0; Relative transmittance of lucifer yellow (%) ([2]; 10 μM): 71.6* %; Relative transmittance of lucifer yellow (%) ([2]; 20 μM): 71.3* %; Production level of matrix metalloprotease-1 (%) ([3]; 5 μM): 86.6%; Production level of matrix metalloprotease-1 (%) ([3]; 10 μM): 77.6* %; Production level of matrix metalloprotease-1 (%) ([3]; 20 μM): 31.9* %; inhibition at 2 µM ([3]; Homo sapiens, NHDF, 2 μM, single use, reduction against control, read-out: Reduction rate of the production level of matrix metalloprotease-1 activity (%)): 10%; inhibition at 5 µM ([3]; Homo sapiens, NHDF, 5 μM, single use, reduction against control, read-out: Reduction rate of the production level of matrix metalloprotease-1 activity (%)): 13.4%; inhibition at 10 µM ([3]; Homo sapiens, NHDF, 10 μM, single use, reduction against control, read-out: Reduction rate of the production level of matrix metalloprotease-1 activity (%)): 22.4%; Number of cells (%) ([4]; 5 μM): 98.5%; Number of cells (%) ([4]; 10 μM): 94.6%; Number of cells (%) ([4]; 20 μM): 94.4%
7 | Nc1ncnc2c1ncn2[C@@H]1O[C@H](CO)[C@@H](O)[C@H]1O [Adenosine, reference compound] | 0.0 | 0.0 | – | 77.1* % | 67.4* % | 88.7% | 93.4% | 85.6% | 93.5 | 87.4 | 91.2 | – | Score ([1]; 100 μM): 0.0
8 | Nc1c2ncn([C@@H]3O[C@H](COP(=O)([O-])O)[C@@H](O)[C@H]3O)c2nc[n+]1[O-].[Na+] [Sodium adenosine N1-oxide 5′-phosphate, sodium adenosine N1-oxide 5′-phosphate] | – | – | – | – | – | – | – | – | – | – | – | 3.0 | Score ([1]; 10 μM): 2.0; Score ([1]; 20 μM): 3.0; Reduction rate of relative transmittance of lucifer yellow (%) [2, 5]: 21.6%; Relative transmittance of lucifer yellow (%) ([2]; 10 μM): 78.4%; reduction of lucifer yellow transmittance ([2]; 20 μM, compared to control): about 60%; Relative transmittance of lucifer yellow (%) ([2]; 20 μM): 62.3* %; Reduction rate of the production level of matrix metalloprotease-1 activity (%) ([3]; 2 μM, single use, reduction against control): 2.9%; Production level of matrix metalloprotease-1 (%) ([3]; 5 μM): 96.0%; Reduction rate of the production level of matrix metalloprotease-1 activity (%) ([3]; 5 μM, single use, reduction against control): 4.0%; Production level of matrix metalloprotease-1 (%) ([3]; 10 μM): 83.1* %; Production level of matrix metalloprotease-1 (%) ([3]; 10 μM, listed as sodium adenosine N1-oxide 5′-phosphate): about 80%; Reduction rate of the production level of matrix metalloprotease-1 activity (%) [3, 5]: 16.9%; Production level of matrix metalloprotease-1 (%) ([3]; 20 μM): 31.8* %; Production level of matrix metalloprotease-1 (%) ([3]; 20 μM, listed as sodium adenosine N1-oxide 5′-phosphate): about 30%; Number of cells (%) ([4]; 5 μM): 99.9%; Number of cells (%) ([4]; 10 μM): 99.5%; Number of cells (%) ([4]; 20 μM): 92.2%
